Measured values as given in US9682965B2, “Fumagillol heterocyclic compounds and methods of making and using same” (Zafgen, Inc., priority 2015, dated 2017).
Counter-ions that a name gives are not always drawn.

What was measured:
[1] = tested on: Diet Induced Obese (DIO) C57BL/6 mice; assay: 10 day DIO mouse model (body weight, food intake, hematology, blood chemistry); type: in vivo; settings: 240 h; DIO mouse, 0.3 mpk sc, once a day for 10 days; read-out: DIO Mouse 10-day weight loss vs vehicle
Text: The objective of this study design was to investigate the efficacy of disclosed compounds in a 10 day DIO mouse model. Effects on body weight, food intake, hematology and blood chemistry were the primary readouts of this study design. […] Mice were fed Research Diets D12492 (60% Kcal fat, 20% Kcal carbohydrate and 20% protein) and provided water ad libitum. DIO mice were received and housed in the facility for approximately two weeks prior to the start of test article administration. On Day −4 or −3, mice were randomized into study groups based on body weight and body weights were continued to be recorded daily for the duration of the study. Daily food intake was assessed starting on Study Day −2 by weighing of the food with hopper together to avoid loss of food in transfer.
(§1) Compounds were formulated into a 100% DMSO stock (at 9 mg/mL) prior to the start, and further diluted into the target working concentration using the vehicle of 10% DMSO in water. Prior to test article administration, starting on Day −3 a dosing acclimation occured with all animals receiving a subcutaneous injection of vehicle (10% DMSO) only for 3 days. Starting on Day 1, test compounds or vehicle were administered based on individual body weight, subcutaneously, once a day for 10 days. All mice were sacrificed on Day 11, 24 hours following the final dosing on Day 10. After sacrifice, whole blood was collected and analyzed for hematology and blood chemistry parameters.
(§2) Compounds were tested vs. vehicle at various doses (1.0, 0.5, 0.3, 0.1, 0.03 mpk sc (mg per kg animal weight delivered subcutaneously), and the results are shown in Table 2 below.

[2] = tested on: Male Sprague Dawley rats on high fat diet; assay: 11 day rat DIO model (body weight, food intake, hematology, blood chemistries); type: in vivo; settings: 264 h, DIO rat, once a day for 11 days, read-out: DIO Rat 11-day weight loss vs vehicle; for inhibition in vivo at 0.3 mg/kg: 0.3 mpk sc; for inhibition in vivo at 1 mg/kg: 1.0 mpk sc
Text: The objective of this study design is to investigate the efficacy of disclosed compounds in an 11 day rat DIO model used to screen compounds for pharmacologic efficacy on endpoints related to obesity and metabolism. Effects on body weight, food intake, hematology and blood chemistries were the primary readouts of this study design. […] Rats were fed Research Diets D12451 (45% High Fat) and provided water ad libitum. Rats were received and housed in the facility for at least two or three weeks prior to start of test article administration. On Day −4 or −3, rats were randomized into study groups based on body weight and body weights were continued to be recorded daily for the duration of the study. Daily food intake was assessed starting on Study Day −2 by weighing the hopper including the food to avoid loss of food in transfer.
as §1, with “for 11” for “for 10”, “All animals” for “All mice”, “11, approximately 2” for “11, 24”, “Day 11.” for “Day 10.”
as §2

CO[C@@H]1[C@H](OC(=O)N2CC[C@@H](CN3CCOCC3)C2)CC[C@]2(CO2)[C@H]1[C@@]1(C)O[C@@H]1CC=C(C)C [Example 37, (S)-(3R,4S,5S,6R)-5-methoxy-4-((2R,3R)-2-methyl-3-(3-methylbut-2-en-1-yl)oxiran-2-yl)-1-oxaspiro[2.5]octan-6-yl 3-(morpholinomethyl)pyrrolidine-1-carboxylate formate]
inhibition in vivo at 0.3 mg/kg [1]: 11.1% | inhibition in vivo at 0.3 mg/kg [2]: 5.3%

CO[C@@H]1[C@H](OC(=O)N2CC(OC(=O)N3CCOCC3)C2)CC[C@]2(CO2)[C@H]1[C@@]1(C)O[C@@H]1CC=C(C)C [Example 71, 1-(((3R,4S,5S,6R)-5-methoxy-4-((2R,3R)-2-methyl-3-(3-methylbut-2-enyl)oxiran-2-yl)-1-oxaspiro[2.5]octan-6-yloxy)carbonyl)azetidin-3-yl morpholine-4-carboxylate formate]
inhibition in vivo at 0.3 mg/kg [1]: 8.9% | inhibition in vivo at 0.3 mg/kg [2]: 10.3% | inhibition in vivo at 1 mg/kg [2]: 10.3%

CCN(CC)C[C@@H]1CCCN1C(=O)O[C@@H]1CC[C@]2(CO2)[C@@H]([C@@]2(C)O[C@@H]2CC=C(C)C)[C@@H]1OC [Example 48, (S)-((3R,4S,5S,6R)-5-methoxy-4-((2R,3R)-2-methyl-3-(3-methylbut-2-enyl)oxiran-2-yl)-1-oxaspiro[2.5]octan-6-yl) 2-((diethylamino)methyl)pyrrolidine-1-carboxylate formate]
inhibition in vivo at 0.3 mg/kg [1]: 7.2% | inhibition in vivo at 0.3 mg/kg [2]: 0.65% | inhibition in vivo at 1 mg/kg [2]: 7.88%

CCN(CC)C[C@H]1CCN1C(=O)O[C@@H]1CC[C@]2(CO2)[C@@H]([C@@]2(C)O[C@@H]2CC=C(C)C)[C@@H]1OC [Example 43, (R)-((3R,4S,5S,6R)-5-methoxy-4-((2R,3R)-2-methyl-3-(3-methylbut-2-enyl)oxiran-2-yl)-1-oxaspiro[2.5]octan-6-yl) 2-((diethylamino)methyl)azetidine-1-carboxylate formate]
inhibition in vivo at 0.3 mg/kg [1]: 2.7% | inhibition in vivo at 0.3 mg/kg [2]: 0.35% | inhibition in vivo at 1 mg/kg [2]: 2.9%

CCN(CC)C[C@@H]1CCN1C(=O)O[C@@H]1CC[C@]2(CO2)[C@@H]([C@@]2(C)O[C@@H]2CC=C(C)C)[C@@H]1OC [Example 40, (S)-((3R,4S,5S,6R)-5-methoxy-4-((2R,3R)-2-methyl-3-(3-methylbut-2-enyl)oxiran-2-yl)-1-oxaspiro[2.5]octan-6-yl) 2-((diethylamino)methyl)azetidine-1-carboxylate formate]
inhibition in vivo at 0.3 mg/kg [1]: 6% | inhibition in vivo at 0.3 mg/kg [2]: 0.08% | inhibition in vivo at 1 mg/kg [2]: 4.73%

CO[C@@H]1[C@H](OC(=O)N2CC(OC(=O)N3CCN(CC(F)F)CC3)C2)CC[C@]2(CO2)[C@H]1[C@@]1(C)O[C@@H]1CC=C(C)C [Example 80, 1-(((3R,4S,5S,6R)-5-methoxy-4-((2R,3R)-2-methyl-3-(3-methylbut-2-enyl)oxiran-2-yl)-1-oxaspiro[2.5]octan-6-yloxy)carbonyl)azetidin-3-yl 4-(2,2-difluoroethyl)piperazine-1-carboxylate]
inhibition in vivo at 0.3 mg/kg [1]: 16.5% | inhibition in vivo at 0.3 mg/kg [2]: 7.3%

CO[C@@H]1[C@H](OC(=O)N2CC[C@@H](CCN3CCOCC3)C2)CC[C@]2(CO2)[C@H]1[C@@]1(C)O[C@@H]1CC=C(C)C [Example 55, (R)-(3R,4S,5S,6R)-5-methoxy-4-((2R,3R)-2-methyl-3-(3-methylbut-2-en-1-yl)oxiran-2-yl)-1-oxaspiro[2.5]octan-6-yl 3-(2-morpholinoethyl)pyrrolidine-1-carboxylate]
inhibition in vivo at 0.3 mg/kg [1]: 12.2% | inhibition in vivo at 0.3 mg/kg [2]: 7.5%

CO[C@@H]1[C@H](OC(=O)N2CC(CCN3CCOCC3)C2)CC[C@]2(CO2)[C@H]1[C@@]1(C)O[C@@H]1CCC(C)C [Example 127, (3R,4S,5S,6R)-4-((2R,3R)-3-isopentyl-2-methyloxiran-2-yl)-5-methoxy-1-oxaspiro[2.5]octan-6-yl 3-(2-morpholinoethyl)azetidine-1-carboxylate]
inhibition in vivo at 0.3 mg/kg [1]: 15.2% | inhibition in vivo at 0.3 mg/kg [2]: 6.1% | inhibition in vivo at 1 mg/kg [2]: 10.7%

CO[C@@H]1[C@H](OC(=O)N2CC(CCC3CCN(CC(F)F)CC3)C2)CC[C@]2(CO2)[C@H]1[C@@]1(C)O[C@@H]1CC=C(C)C [Example 91, (3R,4S,5S,6R)-5-methoxy-4-((2R,3R)-2-methyl-3-(3-methylbut-2-enyl)oxiran-2-yl)-1-oxaspiro[2.5]octan-6-yl 3-(2-(1-(2,2-difluoroethyl)piperidin-4-yl)ethyl)azetidine-1-carboxylate formate]
inhibition in vivo at 0.3 mg/kg [1]: 29.7% | inhibition in vivo at 0.3 mg/kg [2]: 17.2%

CO[C@@H]1[C@H](OC(=O)N2CC(CCN3CCN(CC(F)F)CC3)C2)CC[C@]2(CO2)[C@H]1[C@@]1(C)O[C@@H]1CC=C(C)C [Example 34, (3R,4S,5S,6R)-5-methoxy-4-((2R,3R)-2-methyl-3-(3-methylbut-2-en-1-yl)oxiran-2-yl)-1-oxaspiro[2.5]octan-6-yl 3-(2-(4-(2,2-difluoroethyl)piperazin-1-yl)ethyl)azetidine-1-carboxylate]
inhibition in vivo at 0.3 mg/kg [1]: 9.3% | inhibition in vivo at 0.3 mg/kg [2]: 5.1%

CNC(=O)OCC1CN(C(=O)O[C@@H]2CC[C@]3(CO3)[C@@H]([C@@]3(C)O[C@@H]3CC=C(C)C)[C@@H]2OC)C1 [Example 69, (3R,4S,5S,6R)-5-methoxy-4-((2R,3R)-2-methyl-3-(3-methylbut-2-enyl)oxiran-2-yl)-1-oxaspiro[2.5]octan-6-yl 3-((methylcarbamoyloxy)methyl)azetidine-1-carboxylate]
inhibition in vivo at 0.3 mg/kg [1]: 12.7% | inhibition in vivo at 0.3 mg/kg [2]: 2.1%

CO[C@@H]1[C@H](OC(=O)N2CC[C@@H]2CN2CCCC2)CC[C@]2(CO2)[C@H]1[C@@]1(C)O[C@@H]1CC=C(C)C [Example 42, (R)-((3R,4S,5S,6R)-5-methoxy-4-((2R,3R)-2-methyl-3-(3-methylbut-2-enyl)oxiran-2-yl)-1-oxaspiro[2.5]octan-6-yl) 2-(pyrrolidin-1-ylmethyl)azetidine-1-carboxylate formate]
inhibition in vivo at 0.3 mg/kg [1]: 5.3%

CO[C@@H]1[C@H](OC(=O)N2CC(CCN3CCN(CC(F)F)CC3=O)C2)CC[C@]2(CO2)[C@H]1[C@@]1(C)O[C@@H]1CC=C(C)C [Example 35, (3R,4S,5S,6R)-5-methoxy-4-((2R,3R)-2-methyl-3-(3-methylbut-2-enyl)oxiran-2-yl)-1-oxaspiro[2.5]octan-6-yl 3-(2-(4-(2,2-difluoroethyl)-2-oxopiperazin-1-yl)ethyl)azetidine-1-carboxylate]
inhibition in vivo at 0.3 mg/kg [1]: 21.3%

CO[C@@H]1[C@H](OC(=O)N2CC(CCn3ccnc3)C2)CC[C@]2(CO2)[C@H]1[C@@]1(C)O[C@@H]1CC=C(C)C [Example 18, (3R,4S,5S,6R)-5-methoxy-4-((2R,3R)-2-methyl-3-(3-methylbut-2-enyl)oxiran-2-yl)-1-oxaspiro[2.5]octan-6-yl 3-(2-(1H-imidazol-1-yl)ethyl)azetidine-1-carboxylate]
inhibition in vivo at 0.3 mg/kg [1]: 3%

CO[C@@H]1[C@H](OC(=O)N2CC[C@H]2CN2CCCC2)CC[C@]2(CO2)[C@H]1[C@@]1(C)O[C@@H]1CC=C(C)C [Example 41, (S)-((3R,4S,5S,6R)-5-methoxy-4-((2R,3R)-2-methyl-3-(3-methylbut-2-enyl)oxiran-2-yl)-1-oxaspiro[2.5]octan-6-yl) 2-(pyrrolidin-1-ylmethyl)azetidine-1-carboxylate formate]
inhibition in vivo at 0.3 mg/kg [1]: 4.4%

CO[C@@H]1[C@H](OC(=O)N2CC(CC3CCN(CC(F)F)CC3)C2)CC[C@]2(CO2)[C@H]1[C@@]1(C)O[C@@H]1CC=C(C)C [Example 94, (3R,4S,5S,6R)-5-methoxy-4-((2R,3R)-2-methyl-3-(3-methylbut-2-enyl)oxiran-2-yl)-1-oxaspiro[2.5]octan-6-yl 3-((1-(2,2-difluoroethyl)piperidin-4-yl)methyl)azetidine-1-carboxylate]
inhibition in vivo at 0.3 mg/kg [1]: 22.5%

CO[C@@H]1[C@H](OC(=O)N2CC(CCN3CCC(F)CC3)C2)CC[C@]2(CO2)[C@H]1[C@@]1(C)O[C@@H]1CC=C(C)C [Example 30, (3R,4S,5S,6R)-5-methoxy-4-((2R,3R)-2-methyl-3-(3-methylbut-2-enyl)oxiran-2-yl)-1-oxaspiro[2.5]octan-6-yl 3-(2-(4-fluoropiperidin-1-yl)ethyl)azetidine-1-carboxylate]
inhibition in vivo at 0.3 mg/kg [1]: 9.1%
